# Measurements reported in patent US20260217701A1, “SELECTIVE BET INHIBITORS AND USES THEREOF” (Tay Therapeutics Limited, priority 2022, published 2026).
# Several values for one entry are separate records, joined by “and”; a condition that tells them apart may be missing. Equal entries are not always repeated.
# Test: CIA study: animal body weight
# Conditions: for Average animal body weight / Average animal body weight percent change: CIA; for Animal body weight percent change (%): individual animals
structure (smiles),measurement,setting,value
"Cn1cc(-c2ccccc2)c(-c2cn(C)c(=O)c3[nH]c(-c4cnn(C(F)(F)F)c4)cc23)cc1=O [Compound A, 6-methyl-4-(1-methyl-2-oxo-5-phenyl-1,2-dihydropyridin-4-yl)-2-(1-(trifluoromethyl)-1H-pyrazol-4-yl)-1,6-dihydro-7H-pyrrolo[2,3-c]pyridin-7-one]",Average animal body weight,"Day 8, 3 mg/kg",166
same,Average animal body weight percent change,"Day 8, 3 mg/kg",0.36%
same,Average animal body weight,"Day 8, 10 mg/kg",162
same,Average animal body weight percent change,"Day 8, 10 mg/kg",−0.31%
same,Animal body weight percent change (%),"Day 8, Group 5 (CIA + Compound A 1 mg/kg), 1 mg/kg",4.24% and −4.27% and 4.94% and 5.92% and 1.78% and 2.40% and 1.23%
same,Animal body weight percent change (%),"Day 8, Group 6 (CIA + Compound A 3 mg/kg), 3 mg/kg",−4.76% and 1.75% and −1.14% and 1.20% and −2.40% and 1.23% and 6.37% and 0.64%
same,Average animal body weight,"Day 9, 1 mg/kg",169
same,Average animal body weight percent change,"Day 9, 1 mg/kg",3.79%
same,Average animal body weight,"Day 9, 3 mg/kg",167
same,Average animal body weight percent change,"Day 9, 3 mg/kg",0.75%
same,Average animal body weight,"Day 9, 10 mg/kg",163
same,Average animal body weight percent change,"Day 9, 10 mg/kg",0.36%
same,Animal body weight percent change (%),"Day 9, Group 5 (CIA + Compound A 1 mg/kg), 1 mg/kg",9.09% and −4.88% and 8.02% and 6.58% and 2.37% and 1.80% and 3.68%
same,Animal body weight percent change (%),"Day 9, Group 6 (CIA + Compound A 3 mg/kg), 3 mg/kg",−3.57% and 0.00% (2×) and 1.71% and 1.20% and 4.19% and 8.28% and 2.56%
same,Average animal body weight,"Day 10, 1 mg/kg",170
same,Average animal body weight percent change,"Day 10, 1 mg/kg",4.20%
same,Average animal body weight,"Day 10, 3 mg/kg",168
same,Average animal body weight percent change,"Day 10, 3 mg/kg",1.65%
same,Average animal body weight,"Day 10, 10 mg/kg",164
same,Average animal body weight percent change,"Day 10, 10 mg/kg",0.89%
same,Animal body weight percent change (%),"Day 10, Group 5 (CIA + Compound A 1 mg/kg), 1 mg/kg",7.88% and −5.49% and 9.88% and 9.21% and 0.59% and 5.39% and 1.84%
same,Animal body weight percent change (%),"Day 10, Group 6 (CIA + Compound A 3 mg/kg), 3 mg/kg",−3.57% and 0.58% and 1.14% and 1.80% and 0.60% and 2.45% and 6.37%
same,Average animal body weight,"Day 11, 1 mg/kg",170
same,Average animal body weight percent change,"Day 11, 1 mg/kg",4.25%
same,Average animal body weight,"Day 11, 3 mg/kg",169
same,Average animal body weight percent change,"Day 11, 3 mg/kg",1.92%
same,Average animal body weight,"Day 11, 10 mg/kg",165
same,Average animal body weight percent change,"Day 11, 10 mg/kg",1.44%
same,Animal body weight percent change (%),"Day 11, Group 5 (CIA + Compound A 1 mg/kg), 1 mg/kg",9.09% and −4.27% and 9.88% and 6.58% and 0.59% and 4.79% and 2.45%
same,Animal body weight percent change (%),"Day 11, Group 6 (CIA + Compound A 3 mg/kg), 3 mg/kg",−4.76% and 0.58% and 1.71% and 2.99% and −4.19% and 3.68% and 9.55%
same,Average animal body weight,"Day 12, 1 mg/kg",171
same,Average animal body weight percent change,"Day 12, 1 mg/kg",4.85%
same,Average animal body weight,"Day 12, 3 mg/kg",167
same,Average animal body weight percent change,"Day 12, 3 mg/kg",0.97%
same,Average animal body weight,"Day 12, 10 mg/kg",164
same,Average animal body weight percent change,"Day 12, 10 mg/kg",1.36%
same,Animal body weight percent change (%),"Day 12, Group 5 (CIA + Compound A 1 mg/kg), 1 mg/kg",10.30% and −3.66% and 8.64% and 6.58% and 2.96% and 5.99% and 1.23%
same,Animal body weight percent change (%),"Day 12, Group 6 (CIA + Compound A 3 mg/kg), 3 mg/kg",−5.95% and 2.92% and 2.86% and 0.00% and −5.39% and 3.68% and 9.55%
same,Average animal body weight,"Day 13, 1 mg/kg",169
same,Average animal body weight percent change,"Day 13, 1 mg/kg",3.78%
same,Average animal body weight,"Day 13, 3 mg/kg",167
same,Average animal body weight percent change,"Day 13, 3 mg/kg",0.88%
same,Average animal body weight,"Day 13, 10 mg/kg",163
same,Average animal body weight percent change,"Day 13, 10 mg/kg",0.66%
same,Animal body weight percent change (%),"Day 13, Group 5 (CIA + Compound A 1 mg/kg), 1 mg/kg",9.09% and −3.66% and 10.49% and 5.26% and 2.96% and 2.99% and 1.23%
same,Animal body weight percent change (%),"Day 13, Group 6 (CIA + Compound A 3 mg/kg), 3 mg/kg",−3.57% and 2.34% and −5.14% and 3.59% and −5.99% and 3.07% and 8.92%
same,Average animal body weight,"Day 14, 1 mg/kg",170
same,Average animal body weight percent change,"Day 14, 1 mg/kg",3.90%
same,Average animal body weight,"Day 14, 3 mg/kg",167
same,Average animal body weight percent change,"Day 14, 3 mg/kg",0.99%
same,Average animal body weight,"Day 14, 10 mg/kg",162
same,Average animal body weight percent change,"Day 14, 10 mg/kg",0.03%
same,Animal body weight percent change (%),"Day 14, Group 5 (CIA + Compound A 1 mg/kg), 1 mg/kg",7.88% and −3.05% and 10.49% and 1.97% and 3.55% and 1.80% and 3.07%
same,Animal body weight percent change (%),"Day 14, Group 6 (CIA + Compound A 3 mg/kg), 3 mg/kg",−2.98% and 3.51% and −2.86% and 4.79% and −6.59% and 2.45% and 8.28%
same,Average animal body weight,"Day 15, 1 mg/kg",168
same,Average animal body weight percent change,"Day 15, 1 mg/kg",3.24%
same,Average animal body weight,"Day 15, 3 mg/kg",166
same,Average animal body weight percent change,"Day 15, 3 mg/kg",0.37%
same,Average animal body weight,"Day 15, 10 mg/kg",162
same,Average animal body weight percent change,"Day 15, 10 mg/kg",0.13%
same,Average animal body weight,"Day 16, 1 mg/kg",167
same,Average animal body weight percent change,"Day 16, 1 mg/kg",2.62%
same,Average animal body weight,"Day 16, 3 mg/kg",165
same,Average animal body weight percent change,"Day 16, 3 mg/kg",−0.37%
same,Average animal body weight,"Day 16, 10 mg/kg",161
same,Average animal body weight percent change,"Day 16, 10 mg/kg",−0.57%
same,Average animal body weight,"Day 17, 1 mg/kg",167
same,Average animal body weight percent change,"Day 17, 1 mg/kg",2.48%
same,Average animal body weight,"Day 17, 3 mg/kg",163
same,Average animal body weight percent change,"Day 17, 3 mg/kg",−1.43%
same,Average animal body weight,"Day 17, 10 mg/kg",161
same,Average animal body weight percent change,"Day 17, 10 mg/kg",−0.47%
same,Average animal body weight,"Day 18, 1 mg/kg",167
same,Average animal body weight percent change,"Day 18, 1 mg/kg",2.38%
same,Average animal body weight,"Day 18, 3 mg/kg",164
same,Average animal body weight percent change,"Day 18, 3 mg/kg",−1.11%
same,Average animal body weight,"Day 18, 10 mg/kg",162
same,Average animal body weight percent change,"Day 18, 10 mg/kg",−0.29%
same,Average animal body weight,"Day 19, 1 mg/kg",166
same,Average animal body weight percent change,"Day 19, 1 mg/kg",1.46%
same,Average animal body weight,"Day 19, 3 mg/kg",163
same,Average animal body weight percent change,"Day 19, 3 mg/kg",−1.74%
same,Average animal body weight,"Day 19, 10 mg/kg",161
same,Average animal body weight percent change,"Day 19, 10 mg/kg",−0.70%
same,Average animal body weight,"Day 20, 1 mg/kg",166
same,Average animal body weight percent change,"Day 20, 1 mg/kg",1.92%
same,Average animal body weight,"Day 20, 3 mg/kg",162
same,Average animal body weight percent change,"Day 20, 3 mg/kg",−2.24%
same,Average animal body weight,"Day 20, 10 mg/kg",161
same,Average animal body weight percent change,"Day 20, 10 mg/kg",−0.54%
same,Average animal body weight,"Day 21, 1 mg/kg",165
same,Average animal body weight percent change,"Day 21, 1 mg/kg",0.93%
same,Average animal body weight,"Day 21, 3 mg/kg",162
same,Average animal body weight percent change,"Day 21, 3 mg/kg",−1.78%
same,Average animal body weight,"Day 21, 10 mg/kg",161
same,Average animal body weight percent change,"Day 21, 10 mg/kg",−0.75%
